Measurements taken from patent publication US8822517B2, “Arylosulfonamides for the treatment of CNS diseases” (Adamed SP. Z O.O., priority 2010, dated 2014).

What was measured:
[1] = target: T1, serotoninergic 5-HT6 receptor (Homo sapiens, UniProt P50406); assay: Cellular functional assay, serotoninergic 5-HT6 receptor (agonism/antagonism); format: cell-based; settings: for activation at 1 µM: agonist effect, percent of control specific agonist response, compounds tested at 1×10^−6M, read-out: 5-HT6-ag [%]; for inhibition at 1 µM: read-out: 5-HT6-antag. [%]
T1 sequence (P50406 whole entry): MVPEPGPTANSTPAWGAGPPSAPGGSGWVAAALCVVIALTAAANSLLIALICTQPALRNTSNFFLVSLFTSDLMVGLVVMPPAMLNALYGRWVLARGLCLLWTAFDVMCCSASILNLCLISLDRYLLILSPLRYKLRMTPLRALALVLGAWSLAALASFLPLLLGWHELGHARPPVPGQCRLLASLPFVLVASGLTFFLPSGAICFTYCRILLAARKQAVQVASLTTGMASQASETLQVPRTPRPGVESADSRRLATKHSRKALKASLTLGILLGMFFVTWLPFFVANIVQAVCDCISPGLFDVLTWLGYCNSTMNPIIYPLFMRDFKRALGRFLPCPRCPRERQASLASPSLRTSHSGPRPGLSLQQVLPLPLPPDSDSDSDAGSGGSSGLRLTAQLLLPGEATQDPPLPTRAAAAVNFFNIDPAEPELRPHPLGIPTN
Method: (§1) The compounds were tested at the concentration of 1×10^−6M.
(§2) In the Tables ag refers to agonism, and antag to antagonism).

[2] = target: serotoninergic 5-HT2A receptor (Homo sapiens, UniProt P28223); assay: Binding assay 5-HT2A (h), [3H]ketanserin, HEK-293 cells; set-up: expressed in transfected cells; host or cells: HEK-293 cells; settings: read-out: 5-HT2A
serotoninergic 5-HT2A receptor, sequence (P28223 whole entry): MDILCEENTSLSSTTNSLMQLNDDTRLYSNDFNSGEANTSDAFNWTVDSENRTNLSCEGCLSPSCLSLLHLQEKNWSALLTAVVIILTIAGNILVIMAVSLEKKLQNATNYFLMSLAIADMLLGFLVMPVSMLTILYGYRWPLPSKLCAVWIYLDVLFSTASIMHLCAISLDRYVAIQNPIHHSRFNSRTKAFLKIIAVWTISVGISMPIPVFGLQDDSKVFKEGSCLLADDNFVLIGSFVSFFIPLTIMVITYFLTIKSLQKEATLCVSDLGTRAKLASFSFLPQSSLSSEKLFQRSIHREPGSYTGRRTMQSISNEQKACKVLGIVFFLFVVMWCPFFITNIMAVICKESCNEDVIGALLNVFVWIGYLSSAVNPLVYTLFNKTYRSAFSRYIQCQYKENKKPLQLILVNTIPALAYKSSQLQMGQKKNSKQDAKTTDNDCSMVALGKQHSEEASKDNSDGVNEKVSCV
Method in brief: (§3)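 Scintillation counting detects receptor-bound radioligand. Compound tested at 1×10^−6 M.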

[3] = target: T2, serotoninergic 5-HT7 receptor (Homo sapiens, UniProt P34969); assay: Cellular functional assay, serotoninergic 5-HT7 receptor (agonism/antagonism); format: cell-based; settings: for activation at 1 µM: agonist effect, percent of control specific agonist response, compounds tested at 1×10^−6M, read-out: 5-HT7-ag [%]; for inhibition at 1 µM: read-out: 5-HT7-antag. [%]
T2 sequence (P34969 whole entry): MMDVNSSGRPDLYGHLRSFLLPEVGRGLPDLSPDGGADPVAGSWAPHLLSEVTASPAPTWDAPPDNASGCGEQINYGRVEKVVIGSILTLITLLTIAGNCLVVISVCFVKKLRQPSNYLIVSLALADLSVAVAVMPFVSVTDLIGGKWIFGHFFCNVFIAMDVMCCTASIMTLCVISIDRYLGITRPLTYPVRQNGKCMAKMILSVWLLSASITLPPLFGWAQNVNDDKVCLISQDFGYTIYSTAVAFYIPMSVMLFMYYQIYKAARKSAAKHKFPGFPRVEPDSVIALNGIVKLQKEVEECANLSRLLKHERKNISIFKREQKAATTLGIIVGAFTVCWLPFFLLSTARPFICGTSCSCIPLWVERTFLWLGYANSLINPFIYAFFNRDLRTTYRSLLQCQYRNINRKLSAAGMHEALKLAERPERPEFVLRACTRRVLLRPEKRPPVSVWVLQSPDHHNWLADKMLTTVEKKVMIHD
Method: as §1, §2

[4] = target: T3, muscarinic M3 receptor (Homo sapiens, UniProt P20309); assay: Binding assay M3 (h), [3H]4-DAMP, CHO cells; settings: read-out: M3 [%]
T3 construct: expressed in transfected cells; host or cells: CHO cells
T3 sequence (P20309 whole entry): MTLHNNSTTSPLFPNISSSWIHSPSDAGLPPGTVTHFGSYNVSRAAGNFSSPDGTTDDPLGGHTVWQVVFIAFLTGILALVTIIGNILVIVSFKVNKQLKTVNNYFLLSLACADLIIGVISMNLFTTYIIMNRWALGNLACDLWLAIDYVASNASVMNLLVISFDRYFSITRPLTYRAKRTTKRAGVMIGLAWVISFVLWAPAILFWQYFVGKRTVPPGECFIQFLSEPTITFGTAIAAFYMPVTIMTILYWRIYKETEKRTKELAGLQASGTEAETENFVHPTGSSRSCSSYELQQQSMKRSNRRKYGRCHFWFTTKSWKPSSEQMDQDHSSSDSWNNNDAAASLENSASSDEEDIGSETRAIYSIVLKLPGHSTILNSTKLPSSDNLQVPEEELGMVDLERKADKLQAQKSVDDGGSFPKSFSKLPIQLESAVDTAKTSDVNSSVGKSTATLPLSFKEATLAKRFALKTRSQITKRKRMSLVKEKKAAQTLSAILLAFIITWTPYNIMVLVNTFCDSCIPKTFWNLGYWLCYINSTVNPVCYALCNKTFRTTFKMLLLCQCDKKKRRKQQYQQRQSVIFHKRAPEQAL
Method in brief: as §3

[5] = target: T4, serotonine transporter (SERT) receptor (Homo sapiens, UniProt P31645); assay: Binding assay SERT (h), [3H]imipramine, CHO cells; settings: read-out: SERT [%]
T4 construct: expressed in transfected cells; host or cells: CHO cells
T4 sequence (P31645 whole entry): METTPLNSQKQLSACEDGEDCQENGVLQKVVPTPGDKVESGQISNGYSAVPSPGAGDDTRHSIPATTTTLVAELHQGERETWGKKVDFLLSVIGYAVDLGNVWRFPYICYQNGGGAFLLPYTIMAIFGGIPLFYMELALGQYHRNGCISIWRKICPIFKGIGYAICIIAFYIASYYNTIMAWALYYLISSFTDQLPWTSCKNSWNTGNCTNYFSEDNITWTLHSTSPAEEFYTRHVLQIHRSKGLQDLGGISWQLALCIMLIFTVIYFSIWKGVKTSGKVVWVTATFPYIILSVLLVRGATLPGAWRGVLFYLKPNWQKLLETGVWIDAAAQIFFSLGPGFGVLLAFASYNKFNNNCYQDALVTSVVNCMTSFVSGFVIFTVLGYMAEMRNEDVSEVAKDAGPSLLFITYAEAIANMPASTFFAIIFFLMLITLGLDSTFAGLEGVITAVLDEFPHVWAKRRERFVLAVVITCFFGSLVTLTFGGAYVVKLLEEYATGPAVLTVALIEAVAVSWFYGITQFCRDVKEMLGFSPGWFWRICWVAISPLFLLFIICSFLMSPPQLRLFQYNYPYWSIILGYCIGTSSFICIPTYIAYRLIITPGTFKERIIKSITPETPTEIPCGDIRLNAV
Method in brief: as §3

[6] = target: T5, adrenergic α2C receptor (Homo sapiens, UniProt P18825); assay: Binding assay α2C (h), [3H]RX 821002, CHO cells; set-up: expressed in transfected cells; host or cells: CHO cells; settings: read-out: α2C [%]
T5 sequence (P18825 1-462): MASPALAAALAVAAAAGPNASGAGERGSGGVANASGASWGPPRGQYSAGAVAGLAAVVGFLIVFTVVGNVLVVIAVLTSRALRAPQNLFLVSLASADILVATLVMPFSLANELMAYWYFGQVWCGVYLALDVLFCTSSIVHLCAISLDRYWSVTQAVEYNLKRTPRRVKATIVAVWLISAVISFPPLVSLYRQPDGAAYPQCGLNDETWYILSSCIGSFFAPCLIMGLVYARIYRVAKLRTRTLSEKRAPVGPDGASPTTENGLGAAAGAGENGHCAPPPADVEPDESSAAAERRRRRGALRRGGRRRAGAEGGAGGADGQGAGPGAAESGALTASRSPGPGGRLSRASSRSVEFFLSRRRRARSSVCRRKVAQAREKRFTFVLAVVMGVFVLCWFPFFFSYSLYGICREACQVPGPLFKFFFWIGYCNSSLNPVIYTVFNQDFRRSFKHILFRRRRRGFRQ
Method in brief: as §3

[7] = target: T6, serotoninergic receptor 5-HT2C (Homo sapiens, UniProt P28335); assay: Binding assay 5-HT2C (h), [3H]mesulergine, HEK-293 cells; settings: read-out: 5-HT2C [%]
T6 construct: expressed in transfected cells; host or cells: HEK-293 cells
T6 sequence (P28335 33-458): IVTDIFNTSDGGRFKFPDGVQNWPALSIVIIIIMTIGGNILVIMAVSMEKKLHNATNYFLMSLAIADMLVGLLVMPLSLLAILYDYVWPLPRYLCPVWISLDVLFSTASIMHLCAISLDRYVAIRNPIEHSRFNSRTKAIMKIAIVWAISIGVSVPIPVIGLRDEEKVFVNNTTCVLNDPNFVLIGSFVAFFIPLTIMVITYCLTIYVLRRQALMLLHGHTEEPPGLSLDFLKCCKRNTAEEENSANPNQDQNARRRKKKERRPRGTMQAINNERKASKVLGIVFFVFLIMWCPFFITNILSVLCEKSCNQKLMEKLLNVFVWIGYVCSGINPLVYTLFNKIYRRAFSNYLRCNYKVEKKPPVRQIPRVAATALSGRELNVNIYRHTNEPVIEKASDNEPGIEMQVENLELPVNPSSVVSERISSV
Method in brief: as §3

[8] = target: T2, serotoninergic 5-HT7 receptor; assay: Binding assay 5-HT7 (h), [3H]LSD, CHO cells; set-up: expressed in transfected cells; host or cells: CHO cells; settings: read-out: 5-HT7
Method in brief: as §3

[9] = tested on: sigma σ receptor; assay: Binding assay σ (non-selective), [3H]DTG, rat cerebral cortex; settings: percent inhibition of control specific binding; compounds tested at 1×10^−6 M
Method in brief: as §3

[10] = tested on: adrenergic α1 receptor; assay: Binding assay α1 (non-selective), [3H]prazosin, rat cerebral cortex; settings: percent inhibition of control specific binding; compounds tested at 1×10^−6 M
Method in brief: as §3

[11] = target: histaminergic H1 receptor (Homo sapiens, UniProt P35367); assay: Binding assay H1 (h), [3H]pyrilamine, HEK-293 cells; set-up: expressed in transfected cells; host or cells: HEK-293 cells; settings: read-out: H1 [%]
histaminergic H1 receptor, sequence (P35367 whole entry): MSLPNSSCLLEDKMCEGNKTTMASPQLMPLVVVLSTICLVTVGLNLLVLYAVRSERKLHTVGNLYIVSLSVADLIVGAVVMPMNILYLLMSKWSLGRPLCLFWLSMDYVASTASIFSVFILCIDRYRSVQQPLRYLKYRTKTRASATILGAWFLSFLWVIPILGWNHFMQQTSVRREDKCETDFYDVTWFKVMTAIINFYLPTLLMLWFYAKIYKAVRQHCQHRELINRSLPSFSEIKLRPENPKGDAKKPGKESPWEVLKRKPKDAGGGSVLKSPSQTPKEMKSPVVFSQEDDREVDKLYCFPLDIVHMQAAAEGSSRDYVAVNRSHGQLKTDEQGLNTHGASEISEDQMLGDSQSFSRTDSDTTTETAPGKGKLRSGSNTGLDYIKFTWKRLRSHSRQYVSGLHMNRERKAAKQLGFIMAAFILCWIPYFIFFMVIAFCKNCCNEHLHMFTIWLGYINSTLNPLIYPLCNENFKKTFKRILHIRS
Method in brief: as §3

[12] = target: dopaminergic D2 receptor (Homo sapiens, UniProt P14416); assay: Binding assay D2S (h), [3H]methyl-spiperone, HEK-293 cells; set-up: expressed in transfected cells; host or cells: HEK-293 cells; settings: read-out: D2 [%]
dopaminergic D2 receptor, sequence (P14416 1-414 isoform P14416-2): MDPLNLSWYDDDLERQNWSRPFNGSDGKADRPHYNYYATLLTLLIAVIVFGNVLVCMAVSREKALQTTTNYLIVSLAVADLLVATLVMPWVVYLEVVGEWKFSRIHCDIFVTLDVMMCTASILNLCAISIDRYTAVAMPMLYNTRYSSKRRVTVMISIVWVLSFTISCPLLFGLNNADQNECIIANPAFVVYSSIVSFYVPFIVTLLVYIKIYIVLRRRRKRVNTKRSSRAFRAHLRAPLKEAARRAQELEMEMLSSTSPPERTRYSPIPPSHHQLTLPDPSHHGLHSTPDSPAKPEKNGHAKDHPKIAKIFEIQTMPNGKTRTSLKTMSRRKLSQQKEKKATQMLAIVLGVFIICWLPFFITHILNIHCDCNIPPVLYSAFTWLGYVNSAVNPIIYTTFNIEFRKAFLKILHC
Method in brief: as §3

[13] = target: dopaminergic D3 receptor (Homo sapiens, UniProt P35462); assay: Binding assay D3 (h), [3H]methyl-spiperone, CHO cells; set-up: expressed in transfected cells; host or cells: CHO cells; settings: read-out: D3 [%]
dopaminergic D3 receptor, sequence (P35462 whole entry): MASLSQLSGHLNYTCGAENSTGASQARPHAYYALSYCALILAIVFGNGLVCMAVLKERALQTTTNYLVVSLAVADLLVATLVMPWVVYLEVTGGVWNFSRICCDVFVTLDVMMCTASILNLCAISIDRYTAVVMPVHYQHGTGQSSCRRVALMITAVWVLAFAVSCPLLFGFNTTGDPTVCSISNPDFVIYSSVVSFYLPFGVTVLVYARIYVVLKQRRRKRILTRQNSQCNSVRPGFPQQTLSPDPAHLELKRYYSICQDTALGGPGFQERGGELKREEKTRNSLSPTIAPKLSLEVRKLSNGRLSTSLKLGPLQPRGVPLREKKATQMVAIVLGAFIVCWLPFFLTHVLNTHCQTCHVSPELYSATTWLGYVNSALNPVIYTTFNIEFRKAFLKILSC
Method in brief: as §3

[14] = target: T1, serotoninergic 5-HT6 receptor; assay: Binding assay 5-HT6 (h), [3H]LSD, CHO cells; set-up: expressed in transfected cells; host or cells: CHO cells; settings: read-out: 5-HT6
Method in brief: as §3

[15] = target: T7, serotoninergic 5-HT1A receptor (Homo sapiens, UniProt P08908); assay: Binding assay 5-HT1A (h), [3H]8-OH-DPAT, HEK-293 cells; set-up: expressed in transfected cells; host or cells: HEK-293 cells; settings: read-out: 5-HT1A
T7 sequence (P08908 1-422): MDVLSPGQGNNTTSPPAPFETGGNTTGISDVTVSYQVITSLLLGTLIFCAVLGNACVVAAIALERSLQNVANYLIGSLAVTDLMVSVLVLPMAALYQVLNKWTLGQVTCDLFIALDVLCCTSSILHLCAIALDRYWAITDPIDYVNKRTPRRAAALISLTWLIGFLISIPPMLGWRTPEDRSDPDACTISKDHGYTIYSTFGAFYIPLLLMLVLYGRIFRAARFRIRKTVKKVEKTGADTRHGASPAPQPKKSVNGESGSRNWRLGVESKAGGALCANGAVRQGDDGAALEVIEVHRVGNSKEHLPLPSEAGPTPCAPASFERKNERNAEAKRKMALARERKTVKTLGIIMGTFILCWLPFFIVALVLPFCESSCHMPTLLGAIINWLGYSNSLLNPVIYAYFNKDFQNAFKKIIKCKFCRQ
Method in brief: as §3

| Structure (SMILES) | activation at 1 µM [1] [%] | inhibition at 1 µM [1] [%] | inhibition at 1 µM [2] [%] | activation at 1 µM [3] [%] | inhibition at 1 µM [3] [%] | inhibition at 1 µM [4] [%] | inhibition at 1 µM [5] [%] | inhibition at 1 µM [6] [%] | inhibition at 1 µM [7] [%] | inhibition at 1 µM [8] [%] | σ [%] [9] [%] | α1 [%] [10] [%] | inhibition at 1 µM [11] [%] | inhibition at 1 µM [12] [%] | inhibition at 1 µM [13] [%] | inhibition at 1 µM [14] [%] | inhibition at 1 µM [15] [%] |
| --- | --- | --- | --- | --- | --- | --- | --- | --- | --- | --- | --- | --- | --- | --- | --- | --- | --- |
| O=S(=O)(NCCN1CCC(c2noc3cc(F)ccc23)CC1)c1ccc2ccccc2c1 [Compound 24, N-[2-[4-(6-Fluoro-1,2-benzoxazol-3-yl)piperidin-1-yl]ethyl]naphthalene-2-sulphonamide] | 2 | 9 | 100 | 0 | 99 | 10 | 53 | 99 | 65 | 95 | 80 | 97 | 56 | 99 | 98 | 76 | 80 |
| Cc1cccc(S(=O)(=O)NCCCCN2CCC(c3noc4cc(F)ccc34)CC2)c1 [Compound 19, N-[4-[4-(6-Fluoro-1,2-benzoxazol-3-yl)piperidin-1-yl]butyl]-3-methylbenzenesulphonamide] | -1 | 23 | 100 | -1 | 99 | 9 | 8 | 100 | 56 | 100 | 92 | 99 | 79 | 97 | 90 | 69 | 64 |
| O=S(=O)(NCCCN1CCC(c2noc3cc(F)ccc23)CC1)c1cccc2ccccc12 [Compound 20, N-[3-[4-(6-Fluoro-1,2-benzoxazol-3-yl)piperidin-1-yl]propyl]naphthalene-1-sulphonamide] | -2 | 23 | 100 | -1 | 101 | -9 | 85 | 99 | 75 | 101 | 81 | 99 | 78 | 98 | 96 | 85 | 71 |
| Cc1cccc(S(=O)(=O)NCCN2CCC(c3noc4cc(F)ccc34)CC2)c1 [Compound 25, N-[2-[4-(6-Fluoro-1,2-benzoxazol-3-yl)piperidin-1-yl]ethyl]-3-methylbenzenesulphonamide] | 0 | 6 | 100 | -1 | 97 | 6 | 20 | 98 | 32 | 98 | 76 | 98 | 62 | 96 | 94 | 71 | 92 |
| O=S(=O)(NCCN1CCN(c2nsc3ccccc23)CC1)c1cccc2ccccc12 [Compound 9, N-(2-(4-(1,2-Benzothiazol-3-yl)piperazin-1-yl)ethyl)naphthalene-1-sulphonamide] | 0 | -4 | 99 | 0 | 48 | -2 | 29 | 98 | 24 | 98 | 23 | 74 | 77 | 91 | 90 | 22 | 98 |
| Cc1cccc(S(=O)(=O)NCCN2CCN(c3nsc4ccccc34)CC2)c1 [Compound 11, N-(2-(4-(1,2-Benzothiazol-3-yl)piperazin-1-yl)ethyl)-3-methylbenzenesulphonamide] | -1 | -10 | 99 | 0 | 85 | -6 | 1 | 94 | 40 | 99 | 21 | 85 | 74 | 89 | 91 | 54 | 99 |
| O=c1[nH]c2ccc(S(=O)(=O)NCCN3CCN(c4nsc5ccccc45)CC3)cc2o1 [Compound 12, N-(2-(4-(1,2-Benzothiazol-3-yl)piperazin-1-yl)ethyl)-2-oxo-3H-1,3-benzoxazole-6-sulphonamide] | -1 | -2 | 99 | -1 | 68 | -9 | 7 | 83 | 17 | 89 | 4 | 67 | 79 | 93 | 92 | 80 | 99 |
